Reference: the supplement of paper PMC8882468
± gives the standard deviation of the averaged measurements.

These compounds were tested on HCI-008 (organoid from a HER2-enriched breast cancer xenograft) (assay: CTG-3D luminescence at 96 h relative to day-0 seeding control (ratio to day 0); higher = more growth / less cytotoxicity; PDxO 3D drug screen, 96 h, CTG-3D normalised to day-0 seeding control.). Conditions: 1 µM; days in culture: 228.

SMILES | CTG-3D luminescence at 96 h
COc1cc2c(Oc3ccc4[nH]c(C)cc4c3F)ncnc2cc1OCCCN1CCCC1 [cediranib] | 1.69 ± 0.41
CC(C)n1nc(-c2ccc3oc(N)nc3c2)c2c(N)ncnc21 [sapanisertib] | 0.33 ± 0.05
Cc1cc(Nc2ncnc3ccc(NC4=NC(C)(C)CO4)cc23)ccc1Oc1ccn2ncnc2c1 [tucatinib] | 1.83 ± 0.27
C[C@H](NC(=O)CCC(F)(F)F)C(=O)N[C@@H]1C(=O)N(CCO)c2ncccc2-c2ccccc21 [crenigacestat] | 1.73 ± 0.47
C[C@]12CC[C@@H]3c4ccc(O)cc4C[C@@H](CCCCCCCCC[S+]([O-])CCCC(F)(F)C(F)(F)F)[C@H]3[C@@H]1CC[C@@H]2O (some centres not stated) [fulvestrant] | 1.62 ± 0.27
O=C(c1ccc(F)c(F)c1Nc1ccc(I)cc1F)N1CC(O)([C@@H]2CCCCN2)C1 [cobimetinib] | 1.11 ± 0.17
O=C(/C=C/c1cccnc1)NCCCCC1CCN(C(=O)c2ccccc2)CC1 [FK866] | 0.125 ± 0.022
CS(=O)(=O)c1ccc(C(=O)Nc2ccc(Cl)c(-c3ccccn3)c2)c(Cl)c1 [vismodegib] | 1.46 ± 0.24
C=CCn1c(=O)c2cnc(Nc3ccc(N4CCN(C)CC4)cc3)nc2n1-c1cccc(C(C)(C)O)n1 [adavosertib] | 0.689 ± 0.11

Same assay, conditions: 1 µM; days in culture: 244

SMILES | CTG-3D luminescence at 96 h
COc1cc2c(Oc3ccc4[nH]c(C)cc4c3F)ncnc2cc1OCCCN1CCCC1 [cediranib] | 1.62
CC(C)n1nc(-c2ccc3oc(N)nc3c2)c2c(N)ncnc21 [sapanisertib] | 0.511
Cc1cc(Nc2ncnc3ccc(NC4=NC(C)(C)CO4)cc23)ccc1Oc1ccn2ncnc2c1 [tucatinib] | 1.83
C[C@H](NC(=O)CCC(F)(F)F)C(=O)N[C@@H]1C(=O)N(CCO)c2ncccc2-c2ccccc21 [crenigacestat] | 1.38
C[C@]12CC[C@@H]3c4ccc(O)cc4C[C@@H](CCCCCCCCC[S+]([O-])CCCC(F)(F)C(F)(F)F)[C@H]3[C@@H]1CC[C@@H]2O (some centres not stated) [fulvestrant] | 1.59
O=C(c1ccc(F)c(F)c1Nc1ccc(I)cc1F)N1CC(O)([C@@H]2CCCCN2)C1 [cobimetinib] | 1.1
O=C(/C=C/c1cccnc1)NCCCCC1CCN(C(=O)c2ccccc2)CC1 [FK866] | 0.186
CS(=O)(=O)c1ccc(C(=O)Nc2ccc(Cl)c(-c3ccccn3)c2)c(Cl)c1 [vismodegib] | 2.19
C=CCn1c(=O)c2cnc(Nc3ccc(N4CCN(C)CC4)cc3)nc2n1-c1cccc(C(C)(C)O)n1 [adavosertib] | 0.808

Same assay, conditions: 10 µM; days in culture: 228

SMILES | CTG-3D luminescence at 96 h
COc1cc2c(Oc3ccc4[nH]c(C)cc4c3F)ncnc2cc1OCCCN1CCCC1 [cediranib] | -0.102 ± 0.18
CC(C)n1nc(-c2ccc3oc(N)nc3c2)c2c(N)ncnc21 [sapanisertib] | 0.185 ± 0.037
Cc1cc(Nc2ncnc3ccc(NC4=NC(C)(C)CO4)cc23)ccc1Oc1ccn2ncnc2c1 [tucatinib] | 1.5 ± 0.17
C[C@H](NC(=O)CCC(F)(F)F)C(=O)N[C@@H]1C(=O)N(CCO)c2ncccc2-c2ccccc21 [crenigacestat] | 1.7 ± 0.035
C[C@]12CC[C@@H]3c4ccc(O)cc4C[C@@H](CCCCCCCCC[S+]([O-])CCCC(F)(F)C(F)(F)F)[C@H]3[C@@H]1CC[C@@H]2O (some centres not stated) [fulvestrant] | 1.36 ± 0.14
O=C(c1ccc(F)c(F)c1Nc1ccc(I)cc1F)N1CC(O)([C@@H]2CCCCN2)C1 [cobimetinib] | 1 ± 0.69
O=C(/C=C/c1cccnc1)NCCCCC1CCN(C(=O)c2ccccc2)CC1 [FK866] | 0.168 ± 0.049
CS(=O)(=O)c1ccc(C(=O)Nc2ccc(Cl)c(-c3ccccn3)c2)c(Cl)c1 [vismodegib] | 1.46 ± 0.14
C=CCn1c(=O)c2cnc(Nc3ccc(N4CCN(C)CC4)cc3)nc2n1-c1cccc(C(C)(C)O)n1 [adavosertib] | 0.46 ± 0.17

Same assay, conditions: 10 µM; days in culture: 244

SMILES | CTG-3D luminescence at 96 h
COc1cc2c(Oc3ccc4[nH]c(C)cc4c3F)ncnc2cc1OCCCN1CCCC1 [cediranib] | 0.0639
CC(C)n1nc(-c2ccc3oc(N)nc3c2)c2c(N)ncnc21 [sapanisertib] | 0.267
Cc1cc(Nc2ncnc3ccc(NC4=NC(C)(C)CO4)cc23)ccc1Oc1ccn2ncnc2c1 [tucatinib] | 1.84
C[C@H](NC(=O)CCC(F)(F)F)C(=O)N[C@@H]1C(=O)N(CCO)c2ncccc2-c2ccccc21 [crenigacestat] | 1.57
C[C@]12CC[C@@H]3c4ccc(O)cc4C[C@@H](CCCCCCCCC[S+]([O-])CCCC(F)(F)C(F)(F)F)[C@H]3[C@@H]1CC[C@@H]2O (some centres not stated) [fulvestrant] | 1.9
O=C(c1ccc(F)c(F)c1Nc1ccc(I)cc1F)N1CC(O)([C@@H]2CCCCN2)C1 [cobimetinib] | 1.08
O=C(/C=C/c1cccnc1)NCCCCC1CCN(C(=O)c2ccccc2)CC1 [FK866] | 0.197
CS(=O)(=O)c1ccc(C(=O)Nc2ccc(Cl)c(-c3ccccn3)c2)c(Cl)c1 [vismodegib] | 2.07
C=CCn1c(=O)c2cnc(Nc3ccc(N4CCN(C)CC4)cc3)nc2n1-c1cccc(C(C)(C)O)n1 [adavosertib] | 0.555

Same assay, conditions: 100 µM; days in culture: 228

SMILES | CTG-3D luminescence at 96 h
COc1cc2c(Oc3ccc4[nH]c(C)cc4c3F)ncnc2cc1OCCCN1CCCC1 [cediranib] | -0.136 ± 0.19
CC(C)n1nc(-c2ccc3oc(N)nc3c2)c2c(N)ncnc21 [sapanisertib] | 0.0307 ± 0.0054
Cc1cc(Nc2ncnc3ccc(NC4=NC(C)(C)CO4)cc23)ccc1Oc1ccn2ncnc2c1 [tucatinib] | 0.0233 ± 0.013
C[C@H](NC(=O)CCC(F)(F)F)C(=O)N[C@@H]1C(=O)N(CCO)c2ncccc2-c2ccccc21 [crenigacestat] | 1.65 ± 0.22
C[C@]12CC[C@@H]3c4ccc(O)cc4C[C@@H](CCCCCCCCC[S+]([O-])CCCC(F)(F)C(F)(F)F)[C@H]3[C@@H]1CC[C@@H]2O (some centres not stated) [fulvestrant] | 1.29 ± 0.022
O=C(c1ccc(F)c(F)c1Nc1ccc(I)cc1F)N1CC(O)([C@@H]2CCCCN2)C1 [cobimetinib] | -0.00126 ± 0.003
O=C(/C=C/c1cccnc1)NCCCCC1CCN(C(=O)c2ccccc2)CC1 [FK866] | 0.162 ± 0.077
CS(=O)(=O)c1ccc(C(=O)Nc2ccc(Cl)c(-c3ccccn3)c2)c(Cl)c1 [vismodegib] | 0.622 ± 0.23
C=CCn1c(=O)c2cnc(Nc3ccc(N4CCN(C)CC4)cc3)nc2n1-c1cccc(C(C)(C)O)n1 [adavosertib] | 0.251 ± 0.017

Same assay, conditions: 100 µM; days in culture: 244

SMILES | CTG-3D luminescence at 96 h
COc1cc2c(Oc3ccc4[nH]c(C)cc4c3F)ncnc2cc1OCCCN1CCCC1 [cediranib] | -0.000797
CC(C)n1nc(-c2ccc3oc(N)nc3c2)c2c(N)ncnc21 [sapanisertib] | 0.0296
Cc1cc(Nc2ncnc3ccc(NC4=NC(C)(C)CO4)cc23)ccc1Oc1ccn2ncnc2c1 [tucatinib] | 0.0167
C[C@H](NC(=O)CCC(F)(F)F)C(=O)N[C@@H]1C(=O)N(CCO)c2ncccc2-c2ccccc21 [crenigacestat] | 1.38
C[C@]12CC[C@@H]3c4ccc(O)cc4C[C@@H](CCCCCCCCC[S+]([O-])CCCC(F)(F)C(F)(F)F)[C@H]3[C@@H]1CC[C@@H]2O (some centres not stated) [fulvestrant] | 1.66
O=C(c1ccc(F)c(F)c1Nc1ccc(I)cc1F)N1CC(O)([C@@H]2CCCCN2)C1 [cobimetinib] | 0.000182
O=C(/C=C/c1cccnc1)NCCCCC1CCN(C(=O)c2ccccc2)CC1 [FK866] | 0.173
CS(=O)(=O)c1ccc(C(=O)Nc2ccc(Cl)c(-c3ccccn3)c2)c(Cl)c1 [vismodegib] | 1.01
C=CCn1c(=O)c2cnc(Nc3ccc(N4CCN(C)CC4)cc3)nc2n1-c1cccc(C(C)(C)O)n1 [adavosertib] | 0.252

Same assay, conditions: 625 fM; days in culture: 228

SMILES | CTG-3D luminescence at 96 h
COc1cc2c(Oc3ccc4[nH]c(C)cc4c3F)ncnc2cc1OCCCN1CCCC1 [cediranib] | 1.51 ± 0.11
CC(C)n1nc(-c2ccc3oc(N)nc3c2)c2c(N)ncnc21 [sapanisertib] | 1.78 ± 0.27
Cc1cc(Nc2ncnc3ccc(NC4=NC(C)(C)CO4)cc23)ccc1Oc1ccn2ncnc2c1 [tucatinib] | 1.8641 ± 0.0016
C[C@H](NC(=O)CCC(F)(F)F)C(=O)N[C@@H]1C(=O)N(CCO)c2ncccc2-c2ccccc21 [crenigacestat] | 1.9 ± 0.12
C[C@]12CC[C@@H]3c4ccc(O)cc4C[C@@H](CCCCCCCCC[S+]([O-])CCCC(F)(F)C(F)(F)F)[C@H]3[C@@H]1CC[C@@H]2O (some centres not stated) [fulvestrant] | 1.89 ± 0.35
O=C(c1ccc(F)c(F)c1Nc1ccc(I)cc1F)N1CC(O)([C@@H]2CCCCN2)C1 [cobimetinib] | 1.7 ± 0.47
O=C(/C=C/c1cccnc1)NCCCCC1CCN(C(=O)c2ccccc2)CC1 [FK866] | 1.38 ± 0.11
CS(=O)(=O)c1ccc(C(=O)Nc2ccc(Cl)c(-c3ccccn3)c2)c(Cl)c1 [vismodegib] | 1.79 ± 0.4
C=CCn1c(=O)c2cnc(Nc3ccc(N4CCN(C)CC4)cc3)nc2n1-c1cccc(C(C)(C)O)n1 [adavosertib] | 1.88 ± 0.45

Same assay, conditions: 625 fM; days in culture: 244

SMILES | CTG-3D luminescence at 96 h
COc1cc2c(Oc3ccc4[nH]c(C)cc4c3F)ncnc2cc1OCCCN1CCCC1 [cediranib] | 1.95
CC(C)n1nc(-c2ccc3oc(N)nc3c2)c2c(N)ncnc21 [sapanisertib] | 2.11
Cc1cc(Nc2ncnc3ccc(NC4=NC(C)(C)CO4)cc23)ccc1Oc1ccn2ncnc2c1 [tucatinib] | 2.29
C[C@H](NC(=O)CCC(F)(F)F)C(=O)N[C@@H]1C(=O)N(CCO)c2ncccc2-c2ccccc21 [crenigacestat] | 1.79
C[C@]12CC[C@@H]3c4ccc(O)cc4C[C@@H](CCCCCCCCC[S+]([O-])CCCC(F)(F)C(F)(F)F)[C@H]3[C@@H]1CC[C@@H]2O (some centres not stated) [fulvestrant] | 2.27
O=C(c1ccc(F)c(F)c1Nc1ccc(I)cc1F)N1CC(O)([C@@H]2CCCCN2)C1 [cobimetinib] | 2.25
O=C(/C=C/c1cccnc1)NCCCCC1CCN(C(=O)c2ccccc2)CC1 [FK866] | 1.82
CS(=O)(=O)c1ccc(C(=O)Nc2ccc(Cl)c(-c3ccccn3)c2)c(Cl)c1 [vismodegib] | 2.24
C=CCn1c(=O)c2cnc(Nc3ccc(N4CCN(C)CC4)cc3)nc2n1-c1cccc(C(C)(C)O)n1 [adavosertib] | 2.27
